Where two headings read alike, the source gives them in different places.
Test: Whole blood zalunfiban and M1 concentrations (LC-MS/MS) and non-compartmental PK, phase 1 mass balance study
Type: in vivo, human
Conditions: for Cmax / Tmax / AUC(0-inf) / AUC(0-t) / k el / Vd/F / half-life: male, human, whole blood; for AUC(0-inf): read-out: AUC0-inf, whole blood zalunfiban; for AUC(0-t): read-out: AUC0-last, whole blood zalunfiban; for k el: read-out: Kel, whole blood zalunfiban (converted); for Vd/F: read-out: Vz/F, whole blood zalunfiban; for half-life: read-out: t1/2, whole blood zalunfiban (converted)
From the text: This was a Phase 1, single-centre, open-label, non-controlled, mass balance and metabolite profiling study of ^14C-radiolabeled zalunfiban in health male volunteers (NCT04284995). The planned participant enrolment size was 8, with 2 additional alternate participants available on the morning of dosing. Following a 28-day screening period, all eligible participants were admitted to the research unit the evening before dosing. After fasting overnight, participants completed a standard breakfast prior to dosing on study day 1. After dosing, subjects fasted for 4 h. Fluids were permitted ad libitum starting 1-hour after dosing. The investigational product (IP) was injected SC on study day 1 and participants were housed for 11 days, which is past the final 240-hour sampling time, and then discharged following final evaluation. The clinical study was conducted at the Pharmaron Clinical Pharmacology Centre (Baltimore, MD) and the study protocol, consent forms and regulatory documents were reviewed and approved by the Advarra Institutional Review Board (Columbia, MD).
All participants received the same fixed mass dose of SC 9.5 mg ^14C-zalunfiban (5 μCi), in 0.5 mL of formulation solution. This zalunfiban dose was chosen to both ensure participant safety and to make certain the study results were clinically relevant. For the latter, by strict inclusion of participants with a body weight within the range of 73–99 kg, the zalunfiban doses were no higher than the highest administered in the currently ongoing Phase 3 study, which includes three groups of 0.110 mg/kg zalunfiban, 0.130 mg/kg zalunfiban, and placebo ([NIH 2025]). The ^14C radiolabel dose of 5 μCi presented minimal radiation risk to healthy subjects while providing a high likelihood of meeting the study objectives.
Serial blood samples were collected to determine zalunfiban and its major metabolite des-gly-zalunfiban (M1) whole blood concentrations, additional whole blood metabolite profiling, and total whole blood ^14C at pre dose (−60 min); 5, 10, 15, 30 and 45 min; and 1, 1.5, 2, 2.5, 3, 4, 6, 8, 12, 16, 24, 36, 48, 72, 96, 120, 144, 168, 192, 216 and 240 h after dosing. Blood samples were taken via an indwelling IV catheter or by direct venipuncture into designated blood collection tubes, with K2 EDTA used as an anticoagulant. Study samples were diluted immediately after blood collection, at a ratio of 1:4 using prechilled 30% acetonitrile, then separated into storage tubes and immediately frozen at −80°C for shipment to the analytical laboratory. At the laboratory, extraction of ^14C-zalunfiban from whole blood was achieved by repeated microcentrifugation, vortex mixing, and harvesting to collect analytes (see Metabolite profiling and excretion for more details).
Zalunfiban and M1 whole blood concentrations were measured using a validated LC-MS/MS method in compliance with the ICH-M10 guideline. The method utilised a Sciex 5500 mass spectrometer, Shimadzu LC30AD HPLC system, and a Shimadzu AD multiplate autosampler. Mobile phase A (MPA) was 10 mM ammonium acetate with 0.1% ammonium hydroxide and mobile phase B (MPB) was 10 mM ammonium acetate with acetonitrile:ammonium hydroxide. An Acquity UPLC BEH Hilic 1.7 micrometer column (Waters Corporation) was used at a temperature of 50 °C. The column flow rate was 0.4 mL/min and injection volumes were 2.0 microliters. The gradient for analytical pumps was set at 30% MAP and 70% MPB.
For whole blood LC-MS/MS the calibration ranges were 5.00–500.00 ng/mL for zalunfiban and 25.00–2500.00 ng/mL for M1. Zalunfiban and M1 sample concentrations below 5 ng/mL and 25 ng/mL, respectively, were reported as below the lower limit of quantification (<LLOQ).
Zalunfiban and whole blood radioactivity concentrations were used to calculate PK parameters using standard non-compartmental analysis (NCA) methods using Phoenix WinNonlin software (Phoenix, Princeton, NJ). […]

[1] = geometric mean, n=8, single SC 9.5 mg
[2] = sc, 9.5 mg, geometric mean, n=8, single SC 9.5 mg
[3] = sc, 9.5 mg, mean, n=8, single SC 9.5 mg
[4] = sc, 9.5 mg, median, n=8, single SC 9.5 mg

Question: For NCC(=O)Nc1cncc(-c2nn3c(=O)cc(N4CCNCC4)nc3s2)c1 [Zalunfiban, 2-amino-N-{5-[5-oxo-7-(piperazin-1-yl)-5H-[1,3,4]thia-diazolo[3,2-a]pyrimidin-2-yl]pyridin-3-yl}acetamide], which “Time of last measurable whole blood zalunfiban concentration” value (all participants) is on record?
Answer: ≤ 4 h

Question: What about the “CL/F, whole blood zalunfiban” value [1] of the same molecule?
Answer: 80.7 L/h

Question: And the “tlast, whole blood zalunfiban” value [1]?
Answer: 3.4 h

Question: And the Cmax [2]?
Answer: 94.6 ng/mL

Question: And the Tmax [2]?
Answer: 15 min

Question: And the AUC(0-inf) [2]?
Answer: 116 ng·h/mL

Question: What about the AUC(0-t) [2] of the same molecule?
Answer: 107 ng·h/mL

Question: And the k el [2]?
Answer: 0.00021 s⁻¹

Question: What about the Vd/F [2] of the same molecule?
Answer: 107 L

Question: And the half-life [2]?
Answer: 55.2 min

Question: What about the half-life (sc, 9.5 mg, mean terminal half-life, n=8, single SC 9.5 mg) of the same molecule?
Answer: ~60 min

Question: And the Tmax [3]?
Answer: 15.6 min

Question: And the Cmax (sc, 9.5 mg, mean, n=8, single SC 9.5 mg ^14C-zalunfiban)?
Answer: 95.2 ng/mL

Question: And the AUC(0-inf) [3]?
Answer: 118 ng·h/mL

Question: And the AUC(0-t) [3]?
Answer: 109 ng·h/mL

Question: What about the k el [3] of the same molecule?
Answer: 0.000218 s⁻¹

Question: And the Vd/F [3]?
Answer: 114 L

Question: What about the Cmax [4] of the same molecule?
Answer: 96.9 ng/mL

Question: And the Tmax [4]?
Answer: ~15 min

Question: And the AUC(0-inf) [4]?
Answer: 123 ng·h/mL

Question: And the AUC(0-t) [4]?
Answer: 114 ng·h/mL

Question: And the k el [4]?
Answer: 0.000229 s⁻¹

Question: And the half-life [4]?
Answer: 50.4 min

Question: And the Tmax (subcutaneous, 9.5 mg, median)?
Answer: 15 min

Question: And the Vd/F (median, n=8, single SC 9.5 mg)?
Answer: 96.6 L

Question: And the “CL/F, whole blood zalunfiban” value (mean, n=8, single SC 9.5 mg)?
Answer: 81.8 L/h

Question: What about the “tlast, whole blood zalunfiban” value (mean, n=8, single SC 9.5 mg) of the same molecule?
Answer: 3.4 h

Question: What about the “CL/F, whole blood zalunfiban” value (median, n=8, single SC 9.5 mg) of the same molecule?
Answer: 76.3 L/h

Question: And the “tlast, whole blood zalunfiban” value (median, n=8, single SC 9.5 mg)?
Answer: 3.5 h

From paper PMC13108699, “Mass balance and metabolite profiling of ^14C-Zalunfiban in humans following single-dose subcutaneous administration” (Xenobiotica; the fate of foreign compounds in biological …, 2025)
